Values joined by “and” are separate entries in the source; they are usually repeats but may differ in a detail not shown here. Equal entries are not always repeated. “Also recorded” adds a separate entry of the source. Where two headings read alike, the source gives them in different places.
Columns and labels:
[1] = molecular target: T1, B. anthracis OSB-CoA synthetase (Bacillus anthracis, UniProt Q81K97); assay: biochemical; format: biochemical; details: for Km: read-out: Apparent Km
[2] = molecular target: T1, B. anthracis OSB-CoA synthetase; assay: biochemical; format: biochemical; details: for Km: read-out: Km of varied substrate
[3] = molecular target: T1, B. anthracis OSB-CoA synthetase; assay: biochemical; format: binding
B. anthracis ∆ANR strain = format: cell-based, Bacillus anthracis

T1 sequence (Q81K97 whole entry, looked up): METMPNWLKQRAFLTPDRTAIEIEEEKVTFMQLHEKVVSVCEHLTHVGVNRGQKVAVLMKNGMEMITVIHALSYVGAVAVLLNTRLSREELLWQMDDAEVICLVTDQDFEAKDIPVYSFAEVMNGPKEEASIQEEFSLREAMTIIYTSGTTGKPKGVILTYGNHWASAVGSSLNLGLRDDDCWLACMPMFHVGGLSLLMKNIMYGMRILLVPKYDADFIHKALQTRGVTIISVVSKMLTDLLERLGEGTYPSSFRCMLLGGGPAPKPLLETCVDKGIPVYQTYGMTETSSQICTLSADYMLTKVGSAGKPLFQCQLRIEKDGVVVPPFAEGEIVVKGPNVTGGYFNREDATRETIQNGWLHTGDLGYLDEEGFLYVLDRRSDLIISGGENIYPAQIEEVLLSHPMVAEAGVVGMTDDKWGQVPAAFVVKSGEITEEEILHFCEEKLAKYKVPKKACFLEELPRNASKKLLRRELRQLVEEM

O=C(O)CCC(=O)c1ccccc1C(F)(F)F
decrease in kcat/Km compared to OSB [1]: 100 fold

Nc1ncnc2c1ncn2[C@@H]1O[C@H](COP(=O)(O)O)[C@@H](O)[C@H]1O [AMP]
Ki / αKi values, range in words [2]: millimolar range | Ki [2]: 3600 µM and 4600 µM

Nc1ncnc2c1ncn2[C@@H]1O[C@H](COP(=O)(O)OP(=O)(O)OP(=O)(O)O)[C@@H](O)[C@H]1O [ATP]
kcat ([1]; pH 7.5, 21°C): 2.55 ± 0.0533 s⁻¹ | Km ([1]; pH 7.5, 21°C): 26.8 ± 2.7 µM | Kd [3]: 131 ± 22 µM | binding to free enzyme [3]: No significant binding

CC(C)(COP(=O)(O)OP(=O)(O)OC[C@H]1O[C@@H](n2cnc3c(N)ncnc32)[C@H](O)[C@@H]1OP(=O)(O)O)[C@@H](O)C(=O)NCCC(=O)NCCSC(=O)c1ccccc1 [Benzoyl-CoA, benzoyl-CoA]
Inhibition pattern [2]: mixed-type | Ki / αKi values, range in words [2]: millimolar range | αKi [2]: 15.3 ± 2.6 mM | Ki [2]: 3000 ± 500 µM

CC(C)(COP(=O)(O)OP(=O)(O)OC[C@H]1O[C@@H](n2cnc3c(N)ncnc32)[C@H](O)[C@@H]1OP(=O)(O)O)[C@@H](O)C(=O)NCCC(=O)NCCS [CoA]
kcat ([1]; pH 7.5): 2.6 ± 0.075 s⁻¹ | Km [1]: 279 µM and 194 µM and 269 µM and 231 µM | Km ([1]; pH 7.5): 304 ± 22.1 µM | binding to enzyme-Mg^2+ATP complex [3]: no significant binding | binding to free enzyme [3]: no significant binding | Km [2]: 49.9 µM and 66.2 µM and 39.3 µM

O=C(O)CCC(=O)c1ccccc1C(F)(F)F [Compound 5, 4-(2-trifluoromethylphenyl)-4-oxobutyric acid]
reduction in kcat compared to OSB [1]: 10 fold | remaining activity at 1000 µM ([1]; read-out: residual activity as substrate): 5.8%

O=C(O)CCC(=O)c1ccccc1C(=O)O [OSB, o-succinylbenzoate]
kcat ([1]; pH 7.5, 21°C): 2.58 ± 0.06 s⁻¹ | Km ([1]; pH 7.5, 21°C): 21.9 ± 2 µM | binding to free enzyme [3]: no significant binding | Km [2]: 3.6 µM and 2.8 µM

Nc1ncnc2c1ncn2[C@@H]1O[C@H](COS(=O)(=O)NC(=O)CCC(=O)c2ccccc2C(F)(F)F)[C@@H](O)[C@H]1O [TFMP-butyl-AMS, 5’-O-(N-(2-trifluoromethylphenyl)-4-oxobutyl) adenosine sulfonamide]
whole cell activity (B. anthracis ∆ANR strain): limited whole cell activity | Ki / αKi values, range in words [2]: low micromolar; also recorded: lower micromolar range | αKi (affinity to enzyme-ATP complex) [2]: 108 ± 17.0 µM | Ki [2]: 5.6 µM and 5.2 µM
